According to patent US20130112218A1, “USE OF ELLAGIC ACID AS AN ANTI-DANDRUFF AGENT” (priority 2010, published 2013):

What was measured:
[1] = test system: yeasts of the Malassezia genus; test: Test of effectiveness in an aqueous-alcoholic gel by leave-in application; format: in vivo; settings: ellagic acid 0.5% by weight in aqueous-alcoholic gel A, two applications per week, after one week of treatment, 25 individuals with dandruff, corneodisc count, placebo 29%
Procedure: The aqueous-alcoholic gel for leave-in use A according to the invention was prepared according to the following table. The amounts are indicated as percent by weight of active material (A.M.) relative to the total weight of the composition. The study was carried out on a group of 25 individuals who had scalps with dandruff displaying an excessive proliferation of yeasts of the Malassezia genus. After two weeks of neutral shampoo, the individuals were treated with gel A of the invention or with an equal amount of a placebo comparative composition (identical composition without ellagic acid), at a rate of two applications per week. The yeasts per unit surface area were counted using a corneodisc sample of squamae.

[2] = test system: scalps with dandruff displaying an excessive proliferation of yeasts of the Malassezia genus; test: Test of effectiveness in a shampoo; format: in vivo; settings: ellagic acid 1% by weight in shampoo B, rinsed out, twice a week for four weeks; 21 individuals with dandruff
Procedure: The shampoo B according to the invention was prepared according to the following table. The amounts are indicated as percent by weight of active material (A.M.) relative to the total weight of the composition. The study was carried out on a group of 21 individuals who had scalps with dandruff displaying an excessive proliferation of yeasts of the Malassezia genus. After two weeks of neutral shampoo, the shampoo composition B according to the invention was applied to the scalp for each individual. The composition was then rinsed out with water. This anti-dandruff treatment method was repeated twice a week for four weeks.

O=c1oc2c(O)c(O)cc3c(=O)oc4c(O)c(O)cc1c4c23 [ellagic acid, 2,3,7,8-tetrahydroxy(1)benzopyrano(5,4,3-cde)(1)benzopyran-5,10-dione]
reduction in the number of Malassezia yeasts present on the scalp [1]: 56% | anti-dandruff effectiveness [2]: clear anti-dandruff effectiveness
